# Experimental data as given in the Bradley open melting point set (2014).
row,melting point,Compound
1,-134 °C,"CCC(C)(C)CC [3,3-dimethylpentane]"
2,139 °C,Cc1nc(/C(C#N)=C\c2ccc(Cl)cc2Cl)sc1/N=N/c1ccc(F)cc1
3,-93.5 °C,"CCCN(CCC)CCC [N,N-Dipropylpropan-1-amine]"
4,45 °C,CC(CN(C)C)CN1c2ccccc2CCc2ccccc21 (centres undefined) [trimipramine]
5,100 °C,CSc1ccc(CC(=O)O)cc1 [4-(methylthio)phenylacetic acid]
6,133 °C,Oc1cccc(O)c1O [pyrogallol]
7,280 °C,OCc1ccc(B(O)O)cc1 [4-(hydroxymethyl)benzeneboronic acid]
8,61 °C,O=C1CCCCCCCCCCC1 [cyclododecanone]
9,105 °C,"Cc1[nH]c(C)c(C)c1C [2,3,4,5-tetramethylpyrrole]"
10,54 °C,CCOC(=O)c1ccc(N=C=S)cc1 [4-(ethoxycarbonyl)phenyl isothiocyanate]
11,107 °C,Cc1c(N(C)C)c(=O)n(-c2ccccc2)n1C [4-(dimethylamino)antipyrine]
12,-60 °C,"Cc1ccnc(C)c1 [2,4-lutidine]"
13,70 °C,Cc1ccc(OC(=O)c2ccccc2)cc1 [p-tolyl_benzoate]
14,213 °C,"OB(O)c1cc(Cl)ccc1Cl [2,5-dichlorobenzeneboronic acid]"
15,191 °C,"O=C1Nc2ccccc2C[C@H]1c1ccccc1F [3-(2-Fluorophenyl)-1,2,3,4-tetrahydro-2-quinolone]"
16,56 °C,O=Cc1ccccc1C=O [Phthalaldehyde]
17,134 °C,O=C(O)c1cccc(OCc2ccccc2)c1 [3-benzyloxybenzoic acid]
18,163 °C,Cc1ccccc1B(O)O [2-methylbenzeneboronic acid]
19,31 °C,"O=C(CBr)c1c(F)c(F)c(F)c(F)c1F [2-bromo-2',3',4',5',6'-pentafluoroacetophenone]"
20,45.5 °C,Oc1ccc(F)cc1 [4-Fluorophenol]
21,-129 °C,CB(C)Br [bromodimethylborane]

row,melting point,Compound
1,125 °C,"O=C(O)/C=C/c1c(F)cccc1F [2,6-difluorocinnamic acid]"
2,196 °C,C[N+](C)(C)C[C@H](O)CC(=O)[O-] [L-Carnitine]
3,145 °C,Cc1cccc(-c2nnn[nH]2)c1 [5-(3-methylphenyl)-1h-tetrazole]
4,134 °C,O=C(O)c1ccccc1Nc1cccc(C(F)(F)F)c1 [Flufenamic Acid]
5,-134 °C,CC=C(/C)C [2-Methylbut-2-ene]
6,131 °C,"O=C(O)CCSCCC(=O)O [3,3'-thiodipropionic acid]"
7,118 °C,Cc1cc(C=O)c(C)n1-c1ccc(F)cc1 [OSM-S-02]
8,230 °C,CCn1cc(C(=O)O)c(=O)c2ccc(C)nc21 [nalidixic acid]
9,88 °C,CC(C)(C)OC(=O)O/N=C(\C#N)c1ccccc1 [boc-on]
10,-124 °C,C[SiH](C)c1ccccc1 [dimethylphenylsilane]
11,65 °C,CCOC(=O)Nc1ccc(C)cc1[N+](=O)[O-] [Ethyl (4-methyl-2-nitrophenyl)carbamate]
12,43 °C,O=[N+]([O-])c1ccccc1Br [o-bromonitrobenzene]
13,153 °C,CNc1ccc([N+](=O)[O-])cc1 [N-methyl-4-nitroaniline]
14,182 °C,"Brc1cc(Br)c(Br)cc1Br [1,2,4,5-tetrabromobenzene]"
15,115 °C,"Cc1cc(O)cc(C)c1Cl [4-Chloro-3,5-dimethylphenol]"
16,156 °C,CC(=O)Nc1ccc(Cl)cc1F [4'-chloro-2'-fluoroacetanilide]
17,123 °C,CCCC(=O)Nc1ccc(OCC(O)CNC(C)C)c(C(C)=O)c1 (centres undefined) [acebutolol]
18,130 °C,"Nc1c(Br)cc(Br)cc1[N+](=O)[O-] [2,4-dibromo-6-nitroaniline]"
19,119 °C,COc1cc(C(=O)OCc2cccc(COC(=O)c3cc(OC)c(OC)c(OC)c3)n2)cc(OC)c1OC [pirozadil]
20,201 °C,Cc1c(C2(c3cc(C(C)C)c(O)c(Br)c3C)OS(=O)(=O)c3ccccc32)cc(C(C)C)c(O)c1Br [bromothymol blue]
21,145 °C,C[C@]12C[C@H](O)[C@H]3[C@@H](CCC4=CC(=O)CC[C@@]43C)[C@@H]1CC[C@@H]2C(=O)CO [corticosterone]

row,melting point,Compound
1,180 °C,"NS(=O)(=O)c1c(Cl)cc(Cl)cc1Cl [2,4,6-trichlorobenzenesulfonamide]"
2,212 °C,CNC[C@H](O)c1ccc(O)c(O)c1 [epinephrine]
3,243 °C,"Cc1cc(=O)oc2c(O)c(O)ccc12 [7,8-dihydroxy-4-methylcomarin]"
4,90 °C,"CCOC(=O)c1ccc(N)cc1 [Benzocaine, Ethyl 4-aminobenzoate]"
5,29 °C,Fc1ccc(Br)nc1 [2-bromo-5-fluoropyridine]
6,15 °C,"CC(Br)C(C)(C)Br (centres undefined) [2,3-dibromo-2-methylbutane]"
7,180 °C,c1ccc([Si]2(c3ccccc3)O[Si](c3ccccc3)(c3ccccc3)O[Si](c3ccccc3)(c3ccccc3)O2)cc1 [hexaphenylcyclotrisiloxane]
8,34 °C,"O=C(Cc1ccccc1)Cc1ccccc1 [1,3-diphenylacetone]"
9,-5 °C,C=Cc1cccc([N+](=O)[O-])c1 [m-nitrostyrene]
10,140 °C,CC(CCC(=O)O)C1CCC2C3CCC4CC(=O)CCC4(C)C3CCC12C (centres undefined) [3-oxocholan-24-oic acid]
11,148 °C,CC1(C)CC(=O)CC(=O)C1 [dimedone]
12,119 °C,O=C(O)CCC(=O)c1cccs1 [4-oxo-4-(2-thienyl)butyric acid]
13,260 °C,O=C1OC(c2ccc(O)cc2)(c2ccc(O)cc2)c2ccccc21 [phenolphthalein]
14,113 °C,NC(=O)C1=C(CCc2ccccc2)CCCC1 [2-(2-phenylethyl)cyclohex-1-ene-1-carboxamide]
15,102 °C,CC(=O)OC1CC2C(CCC3(C)C(C(C)CCCC(C)C)CCC23)C2(C)CCC(=O)C=C12 (centres undefined) [3-oxocholest-4-en-6-yl acetate]
16,35 °C,Clc1ccc2ncccc2c1 [6-chloroquinoline]
17,-114 °C,"CC=C(C)C(C)C [3,4-dimethyl-cis-2-pentene]"
18,61 °C,O=[N+]([O-])c1cccc(S(=O)(=O)Cl)c1 [3-nitrobenzenesulfonyl chloride]
19,112 °C,Cc1cc(=O)n(-c2ccccc2)n1C [antipyrine]
20,-70 °C,"CCCCN(CCCC)CCCC [N,N-Dibutylbutan-1-amine]"
21,255 °C,"COC1=CC(=O)C=C(OC)C1=O [2,6-dimethoxy-p-benzoquinone]"

row,melting point,Compound
1,-35 °C,Cc1ccccc1Cl [o-chlorotoluene]
2,55 °C,O=C(c1ccccc1)C1CCCCC1 [cyclohexyl phenyl ketone]
3,36 °C,"CC(=O)c1cccc(C(C)=O)c1 [1,3-diacetylbenzene]"
4,175 °C,CC[C@H](C)C(=O)O[C@H]1C[C@@H](C)C=C2C=C[C@H](C)[C@H](CC[C@@H]3C[C@@H](O)CC(=O)O3)[C@H]21 [lovastatin]
5,108 °C,N#Cc1cccnc1Oc1ccccc1 [3-cyano-2-phenoxypyridine]
6,109 °C,CC(C)CB(O)O [isobutylboronic acid]
7,153 °C,CC(=O)N[C@@H](Cc1ccc(O)cc1)C(=O)O [N-acetyl-l-tyrosine]
8,125 °C,O=C(O)CCCCCCCCCCCCCCC(=O)O [Hexadecanedioic acid]
9,-60 °C,"C[C@@H](O)CO [1,2-Propanediol]"
10,52 °C,O=S(=O)(Cl)c1ccc(Cl)cc1 [4-chlorobenzenesulfonyl chloride]
11,135 °C,O=C(O)Cc1cccc2ccccc12 [Naphthalen-1-Yl-Acetic Acid]
12,162 °C,Oc1ccc(Br)cc1-c1cc[nH]n1 [4-bromo-2-(1h-pyrazol-3-yl)phenol]
13,111 °C,COc1ccc(OCC(=O)O)cc1 [4-methoxyphenoxyacetic acid]
14,104 °C,"Clc1cc(Cl)c(I)cc1Cl [1,2,4-trichloro-5-iodobenzene]"
15,-40 °C,Cc1cccc(Br)c1 [3-bromotoluene]
16,137 °C,CCOC(=O)C1=CN=NC1C (centres undefined) [ethyl 3-methyl-1H-pyrazole-4-carboxylate]
17,-58 °C,C=C(C)C(=O)OC(O)CC (centres undefined) [1-Hydroxypropyl methacrylate]
18,38 °C,CC1(C(=O)O)CCCCC1 [1-methylcyclohexanecarboxylic acid]

row,Compound,melting point
1,CC(=O)Oc1ccc(C(=O)O)cc1 [4-acetoxybenzoic acid],194 °C
2,C=CC(=O)OC [methyl_acrylate],-75 °C
3,O=C5\C=C4/C(C3CCC2(C(CCC2OC(=O)Cc1ccccc1)C3CC4)C)(C)CC5 (centres undefined) [testosterone phenylacetate],129 °C
4,"BrCCBr [1,2-dibromoethane]",10 °C
5,"Cc1cc(CCl)c(C)cc1CCl [2,5-bis(chloromethyl)-p-xylene]",132 °C
6,CCCCc1ccccc1 [Butylbenzene],-88 °C
7,OCCCl [2-chloroethanol],-67 °C
8,"Nc1cc(Cl)ccc1Cl [2,5-dichloroaniline]",50 °C
9,O=S(Cl)Cl [Thionyl dichloride],-104 °C
10,CCCCCCCCCc1ccc(O)cc1 [4-n-nonylphenol],45 °C
11,C1CC[C@H]2CCCC[C@@H]2C1 [trans-decahydronaphthalene],-32 °C
12,CN=C=S [Isothiocyanatomethane],35 °C
13,"O=[N+]([O-])/C=C/c1c(Cl)cccc1Cl [2,6-dichloro-beta-nitrostyrene]",65 °C
14,CC1NC(C(=O)O)CC2=C3C=CCC=C3N=C21 (centres undefined),244 °C
15,Clc1cccc(-c2ccccc2)c1 [3-chlorobiphenyl],18 °C
16,OB(O)c1ccc(CBr)cc1 [4-(bromomethyl)benzeneboronic acid],148 °C
17,c1ccc2cc3cc4ccccc4cc3cc2c1 [Naphthacene],357 °C
18,Brc1c(Br)c(Br)c(Br)c(Br)c1Br [Hexabromobenzene],306 °C
